Patent US6919330B2, “Formulations of drugs” (Laxdale Limited, priority 2002, dated 2005)

Assay: Plasma and red cell selenium levels in healthy controls and patient groups on drugs
Type: in vivo, human
Conditions: schizophrenic patients on the drug, compared with the other groups
From the text: Here the selenium levels are expressed in μmol/litre and are shown as means plus or minus the Standard Error of the Mean (SEM)

CN1CCN(C2=Nc3cc(Cl)ccc3Nc3ccccc32)CC1 [clozapine]
selenium levels: exceptionally low
